{
  "source": "patent EP0302967A2",
  "about": "“Quinazoline derivative, processes for its production, and cerebral dysfunction remedying agent comprising it as active ingredient” (priority 1987, dated 1989)",
  "key": {"brain homogenate": {"test_system": "brain homogenate", "assay": "Lipid peroxide formation inhibiting activity (antioxidant activity), MDA formed by autoxidation", "assay_type": "biochemical, Rats", "settings": "for Antioxidant activity (n=4) Mean ± standard error (%): percent inhibition of autoxidation on the brain homogenate, 37 °C, 30 minutes", "procedure": "The effect of the test compound on the formation of lipid peroxide by autoxidation was determined by the amount of malondialdehyde (MDA) formed.\nRats were decapitated, and the cerebrum was taken out and homogenized with 4 ml, per gram of the cerebrum, of 50 mM phosphate saline-buffer (pH 7.4) and centrifuged (2800 rpm, 10 minutes). The supernatant was taken into a 10 ml test tube to obtain a brain homogenate. It was frozen at -70 °C and stored.\nThe brain homogenate was defrozen, and immediately then, diluted to 10-fold with the aforesaid phosphate saline-buffer. A 2 ml portion of the dilution was taken into a 10 ml test tube cooled with ice, and used to measure its antioxidant activity. Twenty microliters of an aqueous solution of the compound of this invention (dihydrochloride) was added. The amount of MDA immediately after the addition was measured as shown below (MDA 0 time). The mixture was incubated at 37 °C for 30 minutes. The reaction was stopped by adding 400 microliters of 35% perchloric acid solution. After cooling with ice, the cooled mixture was centrifuged (2800 rpm, 10 minutes). To 1 ml of the supernatant, 0.5 ml of 0.5 % thiobarbituric acid solution dissolved in 50% acetic acid solution was added, and the mixture was heated at 100 °C for 15 minutes. After cooling with ice, the absorbance of the solution at 532 nm was measured, and the amount of MDA formed was determined (MDAtest).\nAs a control, the amount of MDA (MDAcont) was determined as above.\nThe antioxidant activity of the compound of the invention was expressed in terms of percent inhibition of autoxidation on the brain homogenate. The calculation was based on the following equation. [formula]"}, "[1]": {"test_system": "Male mice of the ddY strain", "assay": "Anti-scopolamine-induced amnesia activity (one-trial passive avoidance response)", "assay_type": "in vivo", "settings": "scopolamine hydrobromide 1 mg/kg i.p.; for Mean latency (seconds): p<0.01", "procedure": "Male mice of the ddY strain (body weight 20-25g, 20 per group) were used, and the activity of the test compound on deficit of memory induced by scopolamine hydrobromide (a muscarinic acetylcholine receptor antagonist) was examined using one-trial passive avoidance response as an index. Using the same experimental device as in Test Example 1, the same acquisition trial and retrieval trial as in Test Example 1 were carried out (one-trial passive avoidanse response). Scopolamine hydrobromide (1 mg/kg) was intra peritoneally (i.p.) administered to the animals 20 minutes before the acquisition trial. The compound of the invention (dihydrochloride) was dissolved in 1 % gum arabic solution, and intraperitoneally administered immediately after the acquisition trial, and orally (p.o.) administered 60 minutes before the acquisition trial. A 1% solution of gum arabic was administered to the control group."}, "[2]": {"test_system": "Male mice of the ddY strain", "assay": "Anti-hypoxic activity: brain protection against normobaric hypoxia (survival time in 100% nitrogen)", "assay_type": "in vivo", "settings": "one hour before 100% nitrogen, control group taken as 100 %, mean ± standard error, p<0.01", "procedure": "Male mice of the ddY strain (body weight 20-25g, 5 per group) were orally administered with the compound of the invention (dihydrochloride) dissolved in a 1% gum arabic solution. One hour after the administration, the mouse was put in a transparent plastic container (capacity 27 liters) through which 100% nitrogen was passed at a rate of 80 liters/min. The time elapsed until the animal died (the survival time) was measured, and compared with that obtained with the control group (the group to which 1% gum arabic solution was administered)."}, "[3]": {"test_system": "Male mice of the ddY strain", "assay": "Anti-hypoxic activity: brain protection against complete ischemia by decapitation (gasping persistent time)", "assay_type": "in vivo", "settings": "decapitated one hour later, control group taken as 100 %, mean ± standard error", "procedure": "Male mice of the ddY strain (body weight 20-25g, 5 per group) were orally given the compound of the invention (dihydrochloride) dissolved in 1% gum arabic solution. One hour later, the mice were decapitated, and the time elapsed until a gasping-like mouth opening movement appearing after decapitation ceased (gasping persistent time) was measured, and compared with that obtained with the control group (the group to which 1% gum arabic solution was administered)."}, "[4]": {"test_system": "Male mice of the ddY strain", "assay": "Anti-CO2-induced amnesia activity (one-trial passive avoidance response)", "assay_type": "in vivo", "settings": "retrieval 24 hours later, max 300 seconds", "procedure": "Male mice of the ddY strain (body weight 20 - -30 g, 30 per group) were used. Anti-CO₂-induced amnesia activity was determined by using one-trial passive avoidance response as an index. The experimental device consisted of two compartments, one illuminated and the other dark, with a guillotine door in the boundary of the two compartments permitting free passage of the mice through it. In an acquisition trial, a mouse was placed in the illuminated compartment and allowed to enter the dark one. As soon as the mouse entered the dark compartment, the door was shut, and an electrical shock (0.5 mA, 0.2 sec.) was applied through the grid floor. Thus, the mouse was caused to learn that it receives an electric shock upon entering the dark room. In a retrieval trial, the mouse was again placed in the illuminated compartment 24 hours after the acquisition trial, and the time elapsed until it entered the dark compartment (response latency) was measured to an extent of 300 seconds at the longest. (One-trial passive avoidance response) Treatment of inducing amnesia by carbon dioxide was performed by putting the mouse in a 1.6-liter plastic container having a gas intake opening and an gas discharging opening immediately after the acquisition trial, and passing 100% carbon dioxide gas for 14 seconds at a flow rate of 8 liters/min. […]"}, "[5]": {"assay": "Acute toxicity (LD50 by the Weil method)", "settings": "male, ddY, mouse, in vivo, dead animals counted one week later, read-out: LD₅₀", "procedure": "Male ddY mice (body weight 20 - 26 g, 5 per group) were allowed to fast overnight. The compound of this invention (dihydrochloride) dissolved in distilled water was orally (p.o.) administered. From the number of dead animals counted one week later, the LD₅₀ (p.o.) was calculated by the Weil method.\nThen, the compound of this invention (dihydrochloride) was dissolved in saline and intraperitoneally (i.p.) administered to the mice, and the LD₅₀ value (i.p.) was measured similarly."}},
  "note": "pIC50: −log10 of the molar value. Read-outs that look alike come from different tables or passages of the source. Marks after values point to notes of the source that are not given here.",
  "data": [
    {"molecule": "C=CCN1CCN(c2nc(OCCCCC)c3ccccc3n2)CC1.Cl.Cl", "note": "[Compound of the invention (2HCl), 2-(4-allyl-1-piperazinyl)-4-pentyloxyquinazoline dihydrochloride]", "values": [
      {"measurement": "Antioxidant activity (n=4) Mean ± standard error (%)", "setting": "brain homogenate; 10 µM", "result": "6.4 ± 7.7", "unit": "%"},
      {"measurement": "Antioxidant activity (n=4) Mean ± standard error (%)", "setting": "brain homogenate; 30 µM", "result": "27.1 ± 6.8", "unit": "%"},
      {"measurement": "Antioxidant activity (n=4) Mean ± standard error (%)", "setting": "brain homogenate; 100 µM", "result": "77.9 ± 3.1", "unit": "%"},
      {"measurement": "Antioxidant activity (n=4) Mean ± standard error (%)", "setting": "brain homogenate; 300 µM", "result": "93.4 ± 2.2", "unit": "%"},
      {"measurement": "pIC50", "setting": "brain homogenate; inhibition of autoxidation (MDA formation) on the brain homogenate, read-out: 50% inhibition concentration (IC₅₀)", "result": 4.28},
      {"measurement": "Mean latency (seconds)", "setting": "[1]; 3 mg/kg (as free base) i.p. immediately after acquisition trial, control group 92.0", "result": "190.4 **2) seconds"},
      {"measurement": "Mean latency (seconds)", "setting": "[1]; 10 mg/kg (as free base) i.p. immediately after acquisition trial, control group 92.0", "result": "185.1 ** seconds"},
      {"measurement": "Mean latency", "setting": "[1]; 10 mg/kg (as free base) p.o. 60 minutes before acquisition trial, control group 63.1", "result": 59.8, "unit": "s"},
      {"measurement": "Mean latency (seconds)", "setting": "[1]; 30 mg/kg (as free base) i.p. immediately after acquisition trial, control group 92.0", "result": "208.7 ** seconds"},
      {"measurement": "Mean latency (seconds)", "setting": "[1]; 30 mg/kg (as free base) p.o. 60 minutes before acquisition trial, control group 63.1", "result": "144.6 ** seconds"},
      {"measurement": "Survival time (%)", "setting": "[2]; 10 mg/kg orally", "result": "122 ± 5 [1)**2)] %"},
      {"measurement": "Survival time (%)", "setting": "[2]; 30 mg/kg orally", "result": "151 ± 7", "unit": "%"},
      {"measurement": "Mean gasping persistent time (%)", "setting": "[3]; 10 mg/kg orally", "result": "107 ± 6", "unit": "%"},
      {"measurement": "Mean gasping persistent time (%)", "setting": "[3]; 30 mg/kg orally, p<0.01", "result": "139 ± 6 ** 2) %"},
      {"measurement": "Mean gasping persistent time (%)", "setting": "[3]; 100 mg/kg orally, p<0.01", "result": "187 ± 8", "unit": "%"},
      {"measurement": "Mean latency", "setting": "[4]; 10 mg/kg orally 60 minutes before acquisition trial, control group 155.3", "result": 185.8, "unit": "s"},
      {"measurement": "Mean latency (seconds)", "setting": "[4]; 30 mg/kg orally 60 minutes before acquisition trial, control group 155.3, p<0.01", "result": "230.0**1) seconds"},
      {"measurement": "LD50 at 1 week", "setting": "[5]; ip, in saline", "result": 220, "unit": "mg/kg"},
      {"measurement": "LD50 at 1 week", "setting": "[5]; po, in distilled water, fasted overnight", "result": 1270, "unit": "mg/kg"}
    ]}
  ]
}
